Results from US12399427B2, “Photobase generator, compound, photoreactive composition and reaction product” (Tokyo University of Science Foundation, priority 2019, dated 2025).

Assays:
[1] = Behavior of compound in methanol under light irradiation with wavelength of 313 nm or 365 nm (absorbance; Test Examples 1, 2, 8, 9); assay type: physicochemical; details: 2.0×10^−5 mol/L; for molar absorption coefficient ε313: 313 nm; for molar absorption coefficient ε365: 365 nm
Protocol: (§1) The compound (1)-1 obtained above was dissolved in methanol so as to have a concentration of 2.0×10^−5 mol/L. Then, using a mercury xenon lamp, the illuminance was set to 5 mW/cm^2, the exposure doses were set to 0, 10, 30, 60 and 100 mJ/cm^2, and the obtained methanol solution was irradiated with light having a wavelength of 313 nm. Then, the absorbance of the compound (1)-1 was measured.
as §1, with “using an LED” for “using a mercury xenon”, “to 10” for “to 5”, “of 365” for “of 313”
as §1, with “compound (1)-2” for “compound (1)-1”, “to 10” for “to 5”, “0,” for “0, 10,”, “30, 100, 200” for “30, 60”, “and 300” for “and 100”
The compound (1)-2 obtained above was dissolved in methanol so as to have a concentration of 2.0×10^−5 mol/L. Then, using an LED lamp, the illuminance was set to 10 mW/cm^2, the exposure doses were set to 0, 30, 100, 200 and 300 mJ/cm^2, and the obtained methanol solution was irradiated with light having a wavelength of 365 nm. Then, the absorbance of the compound (1)-2 was measured.

[2] = Solubility of the compound in solvents (amount of solvent required to dissolve 10 mg); assay type: physicochemical
Protocol: Moreover, the solubility of the compound (1)-1 in the solvent was confirmed. Specifically, the amount of the solvent required to dissolve 10 mg of the compound (1)-1 was confirmed for each solvent. The amount of the solvent required was from 1 mL to 5 mL when tetrahydrofuran or acetone was used, and 1 mL or less when cyclopentanone, methanol or dimethyl sulfoxide was used.

[3] = Production of reaction product using photoreactive composition including compound (2) (Test Example 12); details: 365 nm, up to 10000 mJ/cm^2, post-bake 160° C. 20 minutes
Protocol: Polyglycidylmethyl acrylate (PGMA, 0.1 g, molecular weight; 22000) showing the structure above, the compound (2) (0.005 g) and tetrahydrofuran (1 g) were blended and stirred at 25° C. for 1 minute to obtain a photoreactive composition.
The photoreactive compositions obtained above was applied onto a silicon wafer by a spin coating method under the conditions of 1500 rpm and 30 seconds. Next, after heating (pre-baking) this coating film (photoreactive composition layer) at 100° C. for 1 minutes, using a Hg—Xe lamp, the coating film was irradiated with light having a wavelength of 365 nm with an illuminance of 50 mW/cm^2 and the exposure doses of 0 mJ/cm^2 to 10000 mJ/cm^2. After light irradiation, the coating film was heated (post-baked) 160° C. for 20 minutes. The coating film after heated was developed with tetrahydrofuran for 30 seconds, and then the ratio of the thickness of the coating film after development to the coating film before light irradiation was measured.

SMILES	molar absorption coefficient ε313 [1]	molar absorption coefficient ε365 [1]	amount of the solvent required to dissolve 10 mg ([2]; cyclopentanone)	amount of the solvent required to dissolve 10 mg ([2]; dimethyl sulfoxide)	amount of the solvent required to dissolve 10 mg ([2]; methanol)	production of an insolubilized reaction product [3]
O=C(/C=C/c1ccccc1O)Nc1ccncc1 [compound (1)-1]	23000 L/mol/cm	6900 L/mol/cm	≤ 1 mL	≤ 1 mL	≤ 1 mL	
CN(C(=O)/C=C/c1ccccc1O)c1ccncc1 [compound (1)-2]	13000 L/mol/cm	3200 L/mol/cm				
O=C(/C=C/c1ccccc1O)NC1CCCCC1 [compound (2)]						could not be produced
